The record followed here is US4879300A, “Novel piperidine derivatives” (Dr. Lo. Zambeletti S.p.A., priority 1986, dated 1989).

In assay [1] the test system is mice. As to the kind of experiment: Mouse tail-flick test (analgesic activity). Format: in vivo, mouse (male Charles River). In general terms: Hot-plate and tail-flick tests time the reaction to a heat stimulus.
Assay [2] concerns the target T1, K receptor (Kappa opioid receptor) (Cavia porcellus, UniProt P41144).
T1 construct: fresh guinea pig brain homogenate; from tissue; host or cells: guinea pig whole brain without cerebellum, homogenate
Kind of assay: Receptor binding to K sites (tritiated Ethylketocyclazocine, guinea pig brain homogenate). The following applies: tritiated Ethylketocyclazocine with 100 nM DADLE and 100 nM DAGO, 25° C., 40 min, read-out: Receptor binding k (kj). Here is the method: (§1) Radio receptor binding to μ and K sites is performed on fresh guinea pig brain homogenate prepared according to Kosterlitz. (1981).
(§2) Whole brain without cerebellum is homogenized in 50 mM, Tris-buffer (pH 7.4 at 0° C.) and centrifuged at 49,000 ×g×10 min.
(§3) The pellet is then resuspended in the same buffer, incubated at 37° C. for 45 min. and centrifuged again.
(§4) 1.9 ml of the final homogenate (1:100 in Tris-pH 7.4, 0° C.) is used for the binding assay.
Binding to K sites (Magnan J., 1982)
The binding of tritiated Ethylketocyclazocine to brain homogenate is measured the in presence of 100 nanomolar D-Ala-D-LeuEnkephalin (DADLE) and 100 nanomolar DAGO, added to saturate the δ and μ opioid receptors respectively.
Final homogenate with solutions of the cold ligand and of the labelled ligand is incubated for 40 min. at 25° C., filtered through Whatman GF/C glass filter discs and washed.
The radioactivity bound to the filters is counted by liquid scintillation spectrophotometry.
MR 2266.500 nM is utilized to determine the saturable binding.
For the calculation of the kinetic parameters of the binding of labelled and unlabelled ligands, the equilibrium dissociation constant (KD), the inhibition constant (Ki) and the maximum number of binding sites (B max) are determined from saturation curves and competition experiments (Hill 1910; Scatchard 1949; Cheng and Prusoff 1973; Gillan et al. 1980). […]

Assay [3] deals with μ receptor (Cavia porcellus, UniProt A0ACM8Q262). As to the kind of experiment: Receptor binding to μ sites (3H-DAGO, guinea pig brain homogenate). The conditions noted are these: 25° C., 40 min, read-out: Receptor binding μ (kj). Here is the method: as §1, §2, §3, §4
Binding to μ sites (Magnan J., 1982)
^3 H [D-Ala^2, MePhe^4, Gly-ol^5 ] Enkephalin (^3 H--DAGO), an enkephalin analogue that binds selectively to μ receptor, is added to the biological substrate and incubated at 25° C. for 40 min., filtered through Whatman GF-C and washed with ice-cold Tris-buffer.
The filters are then dryed, solubilized in Filtercount and the radioactivity monitored. Non specific binding is determined in the presence of 10^-6 M Naloxone.
For the calculation of the kinetic parameters of the binding of labelled and unlabelled ligands, the equilibrium dissociation constant (KD), the inhibition constant (Ki) and the maximum number of binding sites (B max) are determined from saturation curves and competition experiments (Hill 1910; Scatchard 1949; Cheng and Prusoff 1973; Gillan et al. 1980).
A concentration of radioligand near KD is used in the binding assays evaluating our compounds.

The mark [4] stands for this setting: sc, 0.5 h, s.c., reaction time recorded 30 min after dosing, % mice doubling initial time, read-out: Mouse tail-flick ED50 (s.c.).

Like-named read-outs stand apart in the source and are kept apart here.

As usually defined, the ED50 is the midpoint of the dose-response relation.

T1 sequence (P41144 whole entry): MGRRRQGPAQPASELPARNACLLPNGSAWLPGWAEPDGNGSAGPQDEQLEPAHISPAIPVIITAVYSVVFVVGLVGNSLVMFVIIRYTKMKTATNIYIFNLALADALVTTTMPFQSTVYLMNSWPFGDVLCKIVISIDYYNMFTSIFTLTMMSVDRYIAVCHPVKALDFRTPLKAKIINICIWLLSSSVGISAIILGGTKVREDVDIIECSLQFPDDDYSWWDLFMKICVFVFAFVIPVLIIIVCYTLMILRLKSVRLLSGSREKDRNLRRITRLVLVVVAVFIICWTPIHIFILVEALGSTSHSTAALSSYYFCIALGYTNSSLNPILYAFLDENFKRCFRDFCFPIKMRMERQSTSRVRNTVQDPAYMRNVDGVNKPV
Sequence of μ receptor (A0ACM8Q262 1-400): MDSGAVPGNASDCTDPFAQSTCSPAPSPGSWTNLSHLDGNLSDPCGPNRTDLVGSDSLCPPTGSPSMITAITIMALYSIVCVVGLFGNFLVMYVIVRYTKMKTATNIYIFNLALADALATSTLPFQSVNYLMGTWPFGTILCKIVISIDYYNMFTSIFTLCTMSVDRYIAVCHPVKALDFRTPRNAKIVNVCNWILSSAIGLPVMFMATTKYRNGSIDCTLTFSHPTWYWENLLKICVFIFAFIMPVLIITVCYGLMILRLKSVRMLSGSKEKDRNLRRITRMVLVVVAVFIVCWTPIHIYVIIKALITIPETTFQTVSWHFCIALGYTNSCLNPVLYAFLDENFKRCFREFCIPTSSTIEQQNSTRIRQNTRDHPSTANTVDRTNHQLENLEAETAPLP

In the case of `CC(C1CCCCN1C(=O)Cc1ccc(Cl)c(Cl)c1)N1CCCC1` (single isomer, unassigned; diastereoisomer b) [Example 2, 1-(3,4-dichlorophenylacetyl)-2-[1-(1-pyrrolidinyl)ethylpiperidine]--Diastereoisomer B], the ED50 in assay [1] (setting [4]) worked out at 4.12 mg/kg.
For the molecule `CC(C1CCCCN1C(=O)Cc1ccc(Cl)c(Cl)c1)N(C)C.Cl` (single isomer, unassigned; diastereoisomer b) [Example 4, 1-(3,4-dichlorophenylacetyl)-2-(1-dimethylaminoethyl) piperidine hydrochloride--Diastereoisomer B], the ED50 in assay [1] (po, read-out: Mouse tail-flick ED50 (p.o.)) came out at 0.75 mg/kg; in assay [1] (setting [4]), 0.41 mg/kg. The Ki was 2.3 nM in assay [2] and 913 nM in assay [3].
